Laboratory results: patent publication US10029992B2, “Diaminotriazine compounds and their use as herbicides” (BASF SE, priority 2014, dated 2018)

Experiments:
[1] = system: ABUTH; assay: Greenhouse experiment, pre-emergence treatment; type: in vivo, Abutilon theophrasti; conditions: pre-emergence method
Description: (§1) The culture containers used were plastic flowerpots containing loamy sand with approximately 3.0% of humus as the substrate. The seeds of the test plants were sown separately for each species.
(§2) For the pre-emergence treatment, the active ingredients, which had been suspended or emulsified in water, were applied directly after sowing by means of finely distributing nozzles. The containers were irrigated gently to promote germination and growth and subsequently covered with transparent plastic hoods until the plants had rooted. This cover caused uniform germination of the test plants, unless this had been impaired by the active ingredients.
(§3) Depending on the species, the plants were kept at 10-25° C. or 20-35° C., respectively.
(§4) The test period extended over 2 to 4 weeks. During this time, the plants were tended, and their response to the individual treatments was evaluated.
(§5) Evaluation was carried out using a scale from 0 to 100. 100 means no emergence of the plants, or complete destruction of at least the aerial moieties, and 0 means no damage, or normal course of growth. A moderate herbicidal activity is given at values of at least 60, a good herbicidal activity is given at values of at least 70, and a very good herbicidal activity is given at values of at least 85.
(§6) The plants used in the greenhouse experiments were of the following species: […]

[2] = system: ECHCG; assay: Greenhouse experiment, pre-emergence treatment; type: in vivo, Echinochloa crus-galli; conditions: pre-emergence method
Description: as §1, §2, §3, §4, §5, §6

[3] = system: SETFA; assay: Greenhouse experiment, pre-emergence treatment; type: in vivo, Setaria faberi; conditions: pre-emergence method
Description: (§7) The seeds of the test plants were sown separately for each species. For the pre-emergence treatment, the active ingredients, which had been suspended or emulsified in water, were applied directly after sowing by means of finely distributing nozzles. The containers were irrigated gently to promote germination and growth and subsequently covered with transparent plastic hoods until the plants had rooted. This cover caused uniform germination of the test plants, unless this had been impaired by the active ingredients. Depending on the species, the plants were kept at 10-25° C. or 20-35° C., respectively. The test period extended over 2 to 4 weeks. During this time, the plants were tended, and their response to the individual treatments was evaluated. Evaluation was carried out using a scale from 0 to 100. 100 means no emergence of the plants, or complete destruction of at least the aerial moieties, and 0 means no damage, or normal course of growth. A moderate herbicidal activity is given at values of at least 60, a good herbicidal activity is given at values of at least 70, and a very good herbicidal activity is given at values of at least 85. […] [table]

[4] = system: AMARE; assay: Greenhouse experiment, pre-emergence treatment; type: in vivo, Amaranthus retroflexus; conditions: pre-emergence method; for herbicidal activity against AMARA: application rate 125 g/ha
Description: as §7

[5] = system: APESV; assay: Greenhouse experiment, pre-emergence treatment; type: in vivo, Apera spica-venti; conditions: pre-emergence method
Description: as §1, §2, §3, §4, §5, §6

[6] = system: AMARE; assay: Greenhouse experiment, post-emergence treatment; type: in vivo, Amaranthus retroflexus; conditions: post-emergence method, application rate 125 g/ha
Description: (§8) The seeds of the test plants were sown separately for each species. […] For this purpose, the test plants were either sown directly and grown in the same containers, or they were first grown separately as seedlings and transplanted into the test containers a few days prior to treatment. Depending on the species, the plants were kept at 10-25° C. or 20-35° C., respectively. The test period extended over 2 to 4 weeks. During this time, the plants were tended, and their response to the individual treatments was evaluated. Evaluation was carried out using a scale from 0 to 100. 100 means no emergence of the plants, or complete destruction of at least the aerial moieties, and 0 means no damage, or normal course of growth. A moderate herbicidal activity is given at values of at least 60, a good herbicidal activity is given at values of at least 70, and a very good herbicidal activity is given at values of at least 85. […] [table]

[7] = system: ABUTH; assay: Greenhouse experiment, post-emergence treatment; type: in vivo, Abutilon theophrasti; conditions: post-emergence method, application rate 125 g/ha
Description: as §8

[8] = system: SETFA; assay: Greenhouse experiment, post-emergence treatment; type: in vivo, Setaria faberi; conditions: post-emergence method, application rate 125 g/ha
Description: as §8

Cc1cc(C)cc(Sc2cccc(F)c2Nc2nc(N)nc(C(C)(C)F)n2)c1 [Example 2]
herbicidal activity against ABUTH ([1]; application rate 1000 g/ha): good (a good herbicidal activity is given at values of at least 70)

Cc1cc(C)cc(Oc2cccc(F)c2Nc2nc(N)nc(C(C)(C)F)n2)c1 [Example 5]
herbicidal activity against ECHCG ([2]; application rate 0.25 kg/ha): very good (a very good herbicidal activity is given at values of at least 85) | herbicidal activity against SETFA ([3]; application rate 0.25 kg/ha): very good (a very good herbicidal activity is given at values of at least 85) | herbicidal activity against ABUTH ([1]; application rate 0.25 kg/ha): very good (a very good herbicidal activity is given at values of at least 85)

Cc1cccc(Oc2cccc(F)c2Nc2nc(N)nc(C(C)(C)F)n2)c1 [Example 7]
herbicidal activity against ECHCG ([2]; application rate 0.5 kg/ha): good to very good | herbicidal activity against AMARE ([4]; application rate 0.5 kg/ha): good to very good | herbicidal activity against ABUTH ([1]; application rate 0.5 kg/ha): good to very good

Cc1cc(C)cc(Oc2cccc(F)c2Nc2nc(N)nc(C(C)F)n2)c1 (stereo not shown) [Example 11]
herbicidal activity against ECHCG ([2]; application rate 0.125 kg/ha): very good (a very good herbicidal activity is given at values of at least 85) | herbicidal activity against SETFA ([3]; application rate 0.125 kg/ha): very good (a very good herbicidal activity is given at values of at least 85) | herbicidal activity against ABUTH ([1]; application rate 0.125 kg/ha): very good (a very good herbicidal activity is given at values of at least 85)

CC(C)(F)c1nc(N)nc(Nc2c(F)cccc2Oc2cc(C(F)(F)F)cc(C(F)(F)F)c2)n1 [Example 12]
herbicidal activity against AMARE ([4]; application rate 0.25 kg/ha): very good (a very good herbicidal activity is given at values of at least 85) | herbicidal activity against APESV ([5]; application rate 0.25 kg/ha): very good (a very good herbicidal activity is given at values of at least 85) | herbicidal activity against SETFA ([3]; application rate 0.25 kg/ha): very good (a very good herbicidal activity is given at values of at least 85)

CC(C)(F)c1nc(N)nc(Nc2c(F)cccc2Oc2cc(Cl)cc(Cl)c2)n1 [Example 13]
herbicidal activity against AMARE ([4]; application rate 0.25 kg/ha): very good (a very good herbicidal activity is given at values of at least 85) | herbicidal activity against APESV ([5]; application rate 0.25 kg/ha): very good (a very good herbicidal activity is given at values of at least 85) | herbicidal activity against SETFA ([3]; application rate 0.25 kg/ha): very good (a very good herbicidal activity is given at values of at least 85)

Cc1cc(C)cc(Oc2cccc(F)c2Nc2nc(N)nc(C3CCCCC3)n2)c1 [Example 15]
herbicidal activity against ABUTH ([1]; application rate 1000 g/ha): very good (a very good herbicidal activity is given at values of at least 85)

Cc1cc(C)cc(Oc2cccc(F)c2Nc2nc(N)nc(C(C)(C)C)n2)c1 [Example 16]
herbicidal activity against AMARE ([4]; application rate 2000 g/ha): very good (a very good herbicidal activity is given at values of at least 85) | herbicidal activity against APESV ([5]; application rate 2000 g/ha): very good (a very good herbicidal activity is given at values of at least 85) | herbicidal activity against ABUTH ([1]; application rate 2000 g/ha): very good (a very good herbicidal activity is given at values of at least 85)

CC(C)(F)c1nc(N)nc(Nc2c(F)cccc2Oc2cc(F)cc(F)c2)n1 [Example 24]
herbicidal activity against ECHCG ([2]; application rate 0.25 kg/ha): very good (a very good herbicidal activity is given at values of at least 85) | herbicidal activity against APESV ([5]; application rate 0.25 kg/ha): very good (a very good herbicidal activity is given at values of at least 85) | herbicidal activity against ABUTH ([1]; application rate 0.25 kg/ha): very good (a very good herbicidal activity is given at values of at least 85)

Cc1cc(Cl)cc(Oc2cccc(F)c2Nc2nc(N)nc(C(C)(C)F)n2)c1 [Example 28]
herbicidal activity against APESV ([5]; application rate 0.25 kg/ha): very good (a very good herbicidal activity is given at values of at least 85) | herbicidal activity against SETFA ([3]; application rate 0.25 kg/ha): very good (a very good herbicidal activity is given at values of at least 85) | herbicidal activity against ABUTH ([1]; application rate 0.25 kg/ha): very good (a very good herbicidal activity is given at values of at least 85)

COC(C)c1nc(N)nc(Nc2c(F)cccc2Oc2cc(C)cc(C)c2)n1 (stereo not shown) [Example 39]
herbicidal activity against APESV ([5]; application rate 1000 g/ha): very good (a very good herbicidal activity is given at values of at least 85) | herbicidal activity against ABUTH ([1]; application rate 1000 g/ha): very good (a very good herbicidal activity is given at values of at least 85)

CC(C)(F)c1nc(N)nc(Nc2c(F)c(F)cc(Oc3ccccc3)c2F)n1 [Example 42]
herbicidal activity against ECHCG ([2]; application rate 0.5 kg/ha): good to very good | herbicidal activity against AMARE ([4]; application rate 0.5 kg/ha): good to very good | herbicidal activity against ABUTH ([1]; application rate 0.5 kg/ha): good to very good

Cc1cc(C)cc(Oc2cc(F)c(F)c(Nc3nc(N)nc(C(C)(C)F)n3)c2F)c1 [Example 43]
herbicidal activity against AMARE ([4]; application rate 0.5 kg/ha): good to very good | herbicidal activity against SETFA ([3]; application rate 0.5 kg/ha): good to very good | herbicidal activity against ABUTH ([1]; application rate 0.5 kg/ha): good to very good

CC(C)(F)c1nc(N)nc(Nc2c(F)cccc2Oc2cc(F)cc(C(F)(F)F)c2)n1 [Example 53]
herbicidal activity against AMARE [6]: very good (a very good herbicidal activity is given at values of at least 85) | herbicidal activity against ABUTH [7]: very good (a very good herbicidal activity is given at values of at least 85) | herbicidal activity against SETFA [8]: very good (a very good herbicidal activity is given at values of at least 85)

CC(C)(F)c1nc(N)nc(Nc2c(F)cccc2Oc2cc(F)cc(Cl)c2)n1 [Example 54]
herbicidal activity against AMARE [6]: very good (a very good herbicidal activity is given at values of at least 85) | herbicidal activity against ABUTH [7]: very good (a very good herbicidal activity is given at values of at least 85) | herbicidal activity against SETFA [8]: very good (a very good herbicidal activity is given at values of at least 85)

Cc1cc(OCC(F)(F)F)cc(Oc2cccc(F)c2Nc2nc(N)nc(C(C)(C)F)n2)c1 [Example 81]
herbicidal activity against AMARA [4]: very good (a very good herbicidal activity is given at values of at least 85) | herbicidal activity against SETFA ([3]; application rate 125 g/ha): very good (a very good herbicidal activity is given at values of at least 85) | herbicidal activity against ABUTH ([1]; application rate 125 g/ha): good (a good herbicidal activity is given at values of at least 70)

CC(C)(F)c1nc(N)nc(Nc2c(F)cccc2Oc2cc(F)cc(OC(F)F)c2)n1 [Example 82]
herbicidal activity against AMARA [4]: very good (a very good herbicidal activity is given at values of at least 85) | herbicidal activity against SETFA ([3]; application rate 125 g/ha): very good (a very good herbicidal activity is given at values of at least 85) | herbicidal activity against ABUTH ([1]; application rate 125 g/ha): very good (a very good herbicidal activity is given at values of at least 85)

CC(C)c1cccc(Oc2cccc(F)c2Nc2nc(N)nc(C(C)(C)F)n2)c1 [Example 89]
herbicidal activity against ECHCG ([2]; application rate 500 g/ha): very good (a very good herbicidal activity is given at values of at least 85) | herbicidal activity against APESV ([5]; application rate 500 g/ha): very good (a very good herbicidal activity is given at values of at least 85) | herbicidal activity against ABUTH ([1]; application rate 500 g/ha): very good (a very good herbicidal activity is given at values of at least 85)

Cc1cc(C)cc(Oc2cccc(F)c2Nc2nc(N)nc(C3(F)CCCC3)n2)c1 [Example 96]
herbicidal activity against ECHCG ([2]; application rate 500 g/ha): very good (a very good herbicidal activity is given at values of at least 85) | herbicidal activity against SETFA ([3]; application rate 500 g/ha): very good (a very good herbicidal activity is given at values of at least 85) | herbicidal activity against ABUTH ([1]; application rate 500 g/ha): very good (a very good herbicidal activity is given at values of at least 85)

CC(C)(F)c1nc(N)nc(Nc2c(F)cccc2Oc2cccc(OC(F)(F)F)c2)n1 [Example 97]
herbicidal activity against ECHCG ([2]; application rate 500 g/ha): very good (a very good herbicidal activity is given at values of at least 85) | herbicidal activity against SETFA ([3]; application rate 500 g/ha): very good (a very good herbicidal activity is given at values of at least 85) | herbicidal activity against ABUTH ([1]; application rate 500 g/ha): very good (a very good herbicidal activity is given at values of at least 85)

Cc1cc(C)cc(Oc2cccc(C#N)c2Nc2nc(N)nc(C(C)(C)F)n2)c1 [Example 100]
herbicidal activity against ECHCG ([2]; application rate 250 g/ha): very good (a very good herbicidal activity is given at values of at least 85) | herbicidal activity against APESV ([5]; application rate 250 g/ha): very good (a very good herbicidal activity is given at values of at least 85) | herbicidal activity against ABUTH ([1]; application rate 250 g/ha): good (a good herbicidal activity is given at values of at least 70)
